In patent US9107415B2, “2-(substituted-phenyl)-cyclopentane-1,3-dione compounds, and derivatives thereof” (Syngenta Limited, priority 2011, dated 2015):

Assays:
Format in all cases: in vivo
Lolium perenne (LOLPE) [1] = experiment: Biological Example 1 glasshouse screen, post-emergence herbicidal activity; details: 312 h, application rate 250 g/ha, evaluated after 13 days, read-out: LOLPE percentage phytotoxicity
Description: (§1) Seeds of a variety of test species were sown in standard soil in pots. After cultivation for one day (pre-emergence) or after 8 days cultivation (post-emergence) under controlled conditions in a glasshouse (at 24/16°C., day/night; 14 hours light; 65% humidity), the plants were sprayed with an aqueous spray solution derived from the formulation of the “technical”(i.e. unformulated) active ingredient in acetone/water (50:50) solution containing 0.5% Tween 20 (polyoxyethylene sorbitan monolaurate, CAS Registry Number 9005-64-5). The test plants were then grown in a glasshouse under controlled conditions in a glasshouse (at 24/16°C., day/night; 14 hours light; 65% humidity) and watered twice daily. After 13 days for pre- or post-emergence, the test was evaluated visually, and an assessed percentage phytotoxicity score given for each herbicidal application on each plant/weed species (with 100%=total damage to plant; 0%=no damage to plant).
(§2) Test plants: Lolium perenne (LOLPE), Alopecurus myosuroides (ALOMY), Echinochloa crus-galli (ECHCG), and Avena fatua (AVEFA). All four of these are grassy monocotyledonous weeds.

Avena fatua (AVEFA) [2] = experiment: as above; details: 312 h, application rate 250 g/ha, evaluated after 13 days, read-out: AVEFA percentage phytotoxicity
Description: as §1, §2

Lolium perenne (LOLPE) [3] = experiment: Biological Example 1 glasshouse screen, pre-emergence herbicidal activity; details: 312 h, application rate 250 g/ha, evaluated after 13 days, read-out: LOLPE percentage phytotoxicity
Description: as §1, §2

Avena fatua (AVEFA) [4] = experiment: as above; details: 312 h, application rate 250 g/ha, evaluated after 13 days, read-out: AVEFA percentage phytotoxicity
Description: as §1, §2

[5] = system: Echinochloa crus-galli (ECHCG); experiment: Biological Example 1 glasshouse screen, post-emergence herbicidal activity; details: 312 h, application rate 250 g/ha, evaluated after 13 days, read-out: ECHCG percentage phytotoxicity
Description: as §1
(§3) Test plants: Alopecurus myosuroides (ALOMY), Setaria faberi (SETFA), Echinochloa crus-galli (ECHCG), Solanum nigrum (SOLNI), Amaranthus retroflexus (AMARE) and Ipomoea hederacea (IPOHE). ALOMY, SETFA and ECHCG are grassy monocotyledonous weeds. SOLNI, AMARE and IPOHE are dicotyledonous (broadleaved) weeds.
as §2

[6] = system: Alopecurus myosuroides (ALOMY); experiment: as above; details: 312 h, application rate 250 g/ha, evaluated after 13 days, read-out: ALOMY percentage phytotoxicity
Description: as §1, §3, §2

[7] = system: Avena fatua, wild oats (AVEFA); experiment: Biological Example 3 glasshouse screen, post-emergence herbicidal activity; details: 360 h, 15 DAA, no safener, read-out: AVEFA percentage phytotoxicity; for pest or weed control at 60 g/ha: application rate 60 g/ha
Description: (§4) Test Method: Seeds of a variety of test species are sown in standard soil in pots. After cultivation for one day (pre-emergence) or after 12 days cultivation (post-emergence) under controlled conditions in a glasshouse (warm climate species at 24/18°C., cool climate species at 20/16°C., both at day/night; 16 hours light; 65% humidity), the plants are sprayed with an aqueous spray solution derived from the formulation of the “technical”(i.e. unformulated) active ingredient dissolved in acetone plus IF50, at a 1:20 ratio of “technical”active ingredient to IF50. The IF50 contains about 10.56 weight % Emulsogen EL™(castor oil ethoxylate, CAS Registry number 61791-12-6), about 42.22 weight % N-methylpyrrolidone, and about 42.22 weight % DPG-Monoethyl ether (dipropylene glycol mono-ethyl ether). The adjuvant X-77 (a mixture of alkyl aryl polyoxyethylene glycols and free fatty acids in isopropanol, CAS Registry number 11097-66-8) is added to the aqueous spray solution to form a 0.2% v/v solution, before spraying onto the plants.
(§5) The test plants are then grown in a glasshouse under controlled conditions in a glasshouse (at 24/18°C. or 20/16°C., day/night; 16 hours light; 65% humidity) and watered twice daily. After 15 days after application of the herbicide (15 DAA) (for post-emergence), and after 20 DAA (for pre-emergence), the test is evaluated visually, and an assessed percentage phytotoxicity score is given for each herbicidal application on each plant/weed species (with 100%=total damage to plant; 0%=no damage to plant). […]

[8] = system: Lolium perenne, perennial ryegrass (LOLPE); experiment: as above; details: 360 h, 15 DAA, no safener, read-out: LOLPE percentage phytotoxicity; for pest or weed control at 60 g/ha: application rate 60 g/ha
Description: as §4, §5

[9] = system: Alopecurus myosuroides, blackgrass (ALOMY); experiment: as above; details: 360 h, 15 DAA, no safener, read-out: ALOMY percentage phytotoxicity; for pest or weed control at 60 g/ha: application rate 60 g/ha
Description: as §4, §5

[10] = system: Echinochloa crus galli, barnyardgrass (ECHCG); experiment: as above; details: 360 h, 15 DAA, no safener, read-out: ECHCG percentage phytotoxicity; for pest or weed control at 60 g/ha: application rate 60 g/ha
Description: as §4, §5

[11] = system: Triticum aestivum, wheat (TRZAW); experiment: Biological Example 3 glasshouse screen, post-emergence, phytotoxicity on wheat; details: 360 h, 15 DAA, no safener, read-out: TRZAW percentage phytotoxicity; for pest or weed control at 60 g/ha: application rate 60 g/ha
Description: as §4
The test plants are then grown in a glasshouse under controlled conditions in a glasshouse (at 24/18°C. or 20/16°C., day/night; 16 hours light; 65% humidity) and watered twice daily. After 15 days after application of the herbicide (15 DAA) (for post-emergence), and after 20 DAA (for pre-emergence), the test is evaluated visually, and an assessed percentage phytotoxicity score is given for each herbicidal application on each plant/weed species (with 100%=total damage to plant; 0%=no damage to plant).
These give an approximate indication of the level of selectivity on wheat for these tested compounds, when a herbicide safener such as cloquintocet-mexyl is not used: […]

[12] = system: Echinochloa crus-galli (ECHCG); experiment: Biological Example 1 glasshouse screen, pre-emergence herbicidal activity; details: 312 h, application rate 250 g/ha, evaluated after 13 days, read-out: ECHCG percentage phytotoxicity
Description: as §1, §3, §2

[13] = system: Alopecurus myosuroides (ALOMY); experiment: as above; details: 312 h, application rate 250 g/ha, evaluated after 13 days, read-out: ALOMY percentage phytotoxicity
Description: as §1, §3, §2

[14] = system: Echinochloa crus-galli (ECHCG); experiment: Biological Example 2 post-emergence herbicidal activity (comparative data); details: 312 h, read-out: ECHCG percentage phytotoxicity; for pest or weed control at 15.625 g/ha: 15.625 g/ha application rate; for pest or weed control at 62.5 g/ha: 62.5 g/ha application rate
Description: as §1
(§6) Comparative herbicidal data are given for certain exemplified compounds with 4-(prop-1-ynyl)-2,6-dimethylphenyl or 4-(chloroethynyl)-2,6-dimethylphenyl headgroups, compared to the corresponding comparative compounds with 4-ethynyl-2,6-dimethylphenyl headgroups, as follows.
(§7) Except where specified otherwise, the glasshouse screen for herbicidal activity is substantially the same as that presented in Biological Example 1 hereinabove. The weed abbreviations are as defined in Biological Example 1.

Lolium perenne (LOLPE) [15] = experiment: as above
Description: as §1, §6, §7

[16] = system: Alopecurus myosuroides (ALOMY); experiment: as above; details: 312 h, read-out: ALOMY percentage phytotoxicity; for pest or weed control at 15.625 g/ha: 15.625 g/ha application rate; for pest or weed control at 62.5 g/ha: 62.5 g/ha application rate
Description: as §1, §6, §7

Avena fatua (AVEFA) [17] = experiment: as above
Description: as §1, §6, §7

Setaria faberi (SETFA) = experiment: as above
Description: as §1, §6, §7

| SMILES | pest or weed control at 250 g/ha (Lolium perenne (LOLPE) [1]) | pest or weed control at 250 g/ha (Avena fatua (AVEFA) [2]) | pest or weed control at 250 g/ha (Lolium perenne (LOLPE) [3]) | pest or weed control at 250 g/ha (Avena fatua (AVEFA) [4]) | pest or weed control at 250 g/ha [5] | pest or weed control at 250 g/ha [6] | pest or weed control at 60 g/ha [7] | pest or weed control at 60 g/ha [8] | pest or weed control at 60 g/ha [9] | pest or weed control at 60 g/ha [10] | pest or weed control at 60 g/ha [11] | pest or weed control at 250 g/ha [12] | pest or weed control at 250 g/ha [13] | pest or weed control at 15.625 g/ha [14] | pest or weed control at 62.5 g/ha [14] | pest or weed control at 15.625 g/ha [16] | pest or weed control at 62.5 g/ha [16] | also measured |
| --- | --- | --- | --- | --- | --- | --- | --- | --- | --- | --- | --- | --- | --- | --- | --- | --- | --- | --- |
| CC#Cc1cc(C)c(C2=C(O)CC(Cc3cccc(C)n3)C2=O)c(C)c1 (stereo not drawn) [Compound A-9] | 100% | 100% | 100% | 100% | 100% | 90% | 30% | 100% | 80% | 100% | 30% | 100% | 100% |  |  |  |  | pest or weed control at 30 g/ha ([7]; application rate 30 g/ha): 30%; pest or weed control at 30 g/ha ([8]; application rate 30 g/ha): 50%; pest or weed control at 30 g/ha ([9]; application rate 30 g/ha): 70%; pest or weed control at 30 g/ha ([10]; application rate 30 g/ha): 70%; pest or weed control at 30 g/ha ([11]; application rate 30 g/ha): 20% |
| CC#Cc1cc(C)c(C2=C(O)CC(Cc3cccnc3)C2=O)c(C)c1 (stereo not drawn) [Compound A-10] | 100% | 90% | 100% | 90% | 100% | 90% | 50% | 40% | 80% | 80% | 50% | 100% | 80% |  |  |  |  |  |
| CC#Cc1cc(C)c(C2=C(O)CC(Cc3cccnc3C#CC)C2=O)c(C)c1 (stereo not drawn) [Compound A-15] | 100% | 100% | 100% | 70% | 100% | 90% | 80% | 40% | 50% | 80% | 30% | 100% | 90% |  |  |  |  |  |
| C#Cc1cc(C)c(C2=C(O)CC(Cc3ccccn3)C2=O)c(C)c1 (stereo not drawn) [X-1, reference compound] |  |  |  |  |  |  |  |  |  |  |  |  |  | 70% | 80% | 60% | 100% | LOLPE percentage phytotoxicity (Lolium perenne (LOLPE) [15]; 15.625 g/ha application rate): 60%; LOLPE percentage phytotoxicity (Lolium perenne (LOLPE) [15]; 62.5 g/ha application rate): 100%; AVEFA percentage phytotoxicity (Avena fatua (AVEFA) [17]; 15.625 g/ha application rate): 50%; AVEFA percentage phytotoxicity (Avena fatua (AVEFA) [17]; 62.5 g/ha application rate): 90% |
| C#Cc1cc(C)c(C2=C(O)CC(CC3CCOCC3)C2=O)c(C)c1 (stereo not drawn) [X-2, reference compound] |  |  |  |  |  |  |  |  |  |  |  |  |  | 70% | 90% | 60% | 90% | LOLPE percentage phytotoxicity (Lolium perenne (LOLPE) [15]; 15.625 g/ha application rate): 80%; LOLPE percentage phytotoxicity (Lolium perenne (LOLPE) [15]; 62.5 g/ha application rate): 90%; AVEFA percentage phytotoxicity (Avena fatua (AVEFA) [17]; 15.625 g/ha application rate): 90%; AVEFA percentage phytotoxicity (Avena fatua (AVEFA) [17]; 62.5 g/ha application rate): 90% |
| C#Cc1cc(C)c(C2C(=O)CCC2=O)c(C)c1 [X-3, reference compound] |  |  |  |  |  |  |  |  |  |  |  |  |  | 0% | 20% | 0% | 0% | SETFA percentage phytotoxicity (Setaria faberi (SETFA); 15.625 g/ha application rate): 0%; SETFA percentage phytotoxicity (Setaria faberi (SETFA); 62.5 g/ha application rate): 0% |
| C#Cc1cc(C)c(C2C(=O)C3C(C2=O)[C@H]2CC[C@@H]3O2)c(C)c1 (stereo partly drawn) [X-4, reference compound] |  |  |  |  |  |  |  |  |  |  |  |  |  | 80% | 80% | 30% | 80% | SETFA percentage phytotoxicity (Setaria faberi (SETFA); 15.625 g/ha application rate): 40%; SETFA percentage phytotoxicity (Setaria faberi (SETFA); 62.5 g/ha application rate): 40% |
